The text below walks through data of patent US7342029B2, “Substituted indoles” (Sanofi-Aventis Deutschland GmbH, priority 1999, dated 2008).

For series [1], the target named is T1, IκB kinase (Homo sapiens, UniProt O14920+O15111).
T1 construct: endogenous in cells; host or cells: HeLa S3 cell extract S100 (ammonium sulfate cut, Superose-6 fractions at 670 kDa)
Nature of the series: IκB kinase ELISA. It counts as biochemical. The following applies: kinase complex from HeLa S3 cell extract S100, activated with MEKK1Δ. How it is done:
The activity of the IκB kinase was determined using an ELISA comprising a biotinilated substrate peptide containing the amino acid sequence in the protein IκB of serines 32 to 36 and a specific poly- or monoclonal antibody (for example from New England Biolabs, Beverly, Mass., USA, cat.: 9240), which binds only to the phosphorylated form of the peptide IκB. This complex was immobilized on an antibody-binding plate (coated with protein A) and detected using a conjugate of a biotin-binding protein and HRP (for example streptavidine HRP). The activity could be quantified using a standard curve with substrate phosphopeptide.
To obtain the kinase complex, 10 ml of HeLa S3 cell extract S100 were diluted with 40 ml 50 mM HEPES, pH 7.5, adjusted to 40% ammonium sulfate and incubated on ice for 30 minutes. The precipitated pellet was dissolved in 5 ml SEC buffer (50 mM HEPES, pH 7.5, 1 mM DTT, 0.5 mM EDTA, 10 mM 2-glycerophosphate), centrifuged at 20,000×g for 15 minutes and filtered through a 0.22 μm filter. The sample was applied to a 320 ml Superose-6 FPLC column (Amersham Pharmacia Biotech AB, Uppsala, Sweden) which had been equilibrated with SEC buffer and was operated at a flow rate of 2 ml/min at 4° C. The fractions which corresponded to the elution time of the 670 kDa molecular weight standard were combined for activation. Activation was achieved by a 45-minute-incubation with 100 nM MEKK1Δ, 250 μM MgATP, 10 mM MgCl2, 5 mM dithiothreitol (DTT), 10 mM 2-glycerophosphate, 2.5 μM microcystin LR at 37° C. The activated enzyme was stored at −80° C.
The test substances, dissolved in DMSO (2 μl), were preincubated at 25° C. with 43 μl of activated enzyme (diluted 1:25 in reaction buffer 50 mM HEPES, pH 7.5, 10 mM MgCl2, 5 mM DTT, 10 mM β-glycerophosphate, 2.5 μM microcystin LR) for 30 minutes. 5 μl of substrate peptide (biotin-(CH2)6-DRHDSGLDSMKD-CONH2) (200 μM) were added, the mixture was incubated for one hour and the reaction was quenched using 150 μl of 50 mM HEPES, pH 7.5, 0.1% BSA, 50 mM EDTA, antibody [1:200]. 100 μl of the quenched reaction mixture or a standard phosphopeptide dilution series (biotin-(CH2)6-DRHDS[PO3]GLDSMKD-CONH2) were then transferred to a protein A plate (Pierce Chemical Co., Rockford, Ill., USA) and incubated with shaking for 2 hours.
After 3 washing steps with PBS, 100 μl of 0.5 μg/ml of streptavidin HRP (horseradish peroxidase) (diluted in 50mM HEPES/0.1% BSA) were added for 30 minutes. After 5 washing steps with PBS, 100 μl of TMB substrate (Kirkegaard & Perry Laboratories, Gaithersburg, Md., USA) were added and the development of color was stopped by addition of 100 μl of 0.18 M sulfuric acid. Absorption was measured at 450 nm. The standard curve was generated by […] according to a 4-parameter dose-activity relation. Using this standard curve, the enzyme activity or their inhibition by test substances was quantified.
Each substance was tested in duplicate. The mean of the blank (without enzyme) was subtracted from the means (enzyme with and without substances), and the inhibition in % was calculated. IC50 calculations were carried out using the software package GraFit 3.0.
(In an ELISA, binding on a coated surface is turned into a signal by an enzyme label.)

The target in series [2] is T2, cAMP-dependent protein kinase (PKA) (Homo sapiens, UniProt P17612).
T2 construct: purchased Upstate Biotechnologie
Nature of the series: PKA kinase inhibition (Upstate test kit). It counts as biochemical. The following applies: substance concentration 100 μM; ATP 50 μM. How it is done:
(§1) cAMP-dependent protein kinase (PKA), protein kinase C (PKC) and casein kinase II (CK II) were determined using the corresponding test kits of Upstate Biotechnologie according to the instructions of the manufacturer at an ATP concentration of 50 μM. However, instead of phosphocellulose filters, multi-screen plates (Millipore; Phosphocellulose MS-PH, cat. MAPHNOB10) with the corresponding aspiration system were used. The plates were then measured in a Wallac MicroBeta scintillation counter. In each case, 100 μM of test substance were used. Each substance was tested in duplicate. The mean of the blank (without enzyme) was subtracted from the means (enzyme with and without substances), and the inhibition in % was calculated. IC50 calculations were carried out using the software package GraFit 3.0.

Series [3] relates to protein kinase C (PKC). Nature of the series: PKC kinase inhibition (Upstate test kit). It counts as biochemical. The following applies: substance concentration 100 μM; ATP 50 μM. How it is done: as §1
Series [4] has as its target T3, casein kinase II (CK II) (Homo sapiens, UniProt P68400).
T3 construct: purchased Upstate Biotechnologie
Nature of the series: CK II kinase inhibition (Upstate test kit). It counts as biochemical. Conditions: substance concentration 100 μM; ATP 50 μM. How it is done:
as §1

T3 sequence (P68400 whole entry): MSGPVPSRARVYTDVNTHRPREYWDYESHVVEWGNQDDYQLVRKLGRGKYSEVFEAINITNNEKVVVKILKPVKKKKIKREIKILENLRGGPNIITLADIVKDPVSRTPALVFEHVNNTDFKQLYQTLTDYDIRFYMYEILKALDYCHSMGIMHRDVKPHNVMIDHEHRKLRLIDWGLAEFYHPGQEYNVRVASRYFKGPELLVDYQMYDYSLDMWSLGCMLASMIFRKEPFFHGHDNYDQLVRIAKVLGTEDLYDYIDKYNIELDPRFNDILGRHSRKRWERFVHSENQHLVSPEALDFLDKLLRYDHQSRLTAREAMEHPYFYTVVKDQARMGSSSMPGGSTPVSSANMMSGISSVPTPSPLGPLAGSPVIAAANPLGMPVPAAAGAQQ
T1 sequence (O14920 whole entry): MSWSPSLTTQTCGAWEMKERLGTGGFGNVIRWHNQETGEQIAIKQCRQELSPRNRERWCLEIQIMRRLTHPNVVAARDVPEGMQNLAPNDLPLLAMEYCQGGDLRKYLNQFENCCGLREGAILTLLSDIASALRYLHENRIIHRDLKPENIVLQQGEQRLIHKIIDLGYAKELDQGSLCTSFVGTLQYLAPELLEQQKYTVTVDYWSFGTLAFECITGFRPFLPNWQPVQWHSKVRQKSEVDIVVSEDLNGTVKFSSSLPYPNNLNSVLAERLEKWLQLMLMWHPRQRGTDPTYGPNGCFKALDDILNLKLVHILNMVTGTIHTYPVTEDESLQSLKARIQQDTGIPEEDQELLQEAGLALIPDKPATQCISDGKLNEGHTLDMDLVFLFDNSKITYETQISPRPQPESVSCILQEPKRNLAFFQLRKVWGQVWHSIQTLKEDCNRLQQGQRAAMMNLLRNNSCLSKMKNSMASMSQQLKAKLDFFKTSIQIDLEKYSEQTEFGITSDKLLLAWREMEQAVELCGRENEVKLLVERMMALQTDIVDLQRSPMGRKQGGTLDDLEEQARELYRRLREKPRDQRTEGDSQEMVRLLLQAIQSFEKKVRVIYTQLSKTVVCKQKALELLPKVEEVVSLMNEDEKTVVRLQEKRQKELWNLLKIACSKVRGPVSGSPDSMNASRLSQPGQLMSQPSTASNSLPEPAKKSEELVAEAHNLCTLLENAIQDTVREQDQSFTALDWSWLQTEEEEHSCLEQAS
T1 sequence (O15111 whole entry): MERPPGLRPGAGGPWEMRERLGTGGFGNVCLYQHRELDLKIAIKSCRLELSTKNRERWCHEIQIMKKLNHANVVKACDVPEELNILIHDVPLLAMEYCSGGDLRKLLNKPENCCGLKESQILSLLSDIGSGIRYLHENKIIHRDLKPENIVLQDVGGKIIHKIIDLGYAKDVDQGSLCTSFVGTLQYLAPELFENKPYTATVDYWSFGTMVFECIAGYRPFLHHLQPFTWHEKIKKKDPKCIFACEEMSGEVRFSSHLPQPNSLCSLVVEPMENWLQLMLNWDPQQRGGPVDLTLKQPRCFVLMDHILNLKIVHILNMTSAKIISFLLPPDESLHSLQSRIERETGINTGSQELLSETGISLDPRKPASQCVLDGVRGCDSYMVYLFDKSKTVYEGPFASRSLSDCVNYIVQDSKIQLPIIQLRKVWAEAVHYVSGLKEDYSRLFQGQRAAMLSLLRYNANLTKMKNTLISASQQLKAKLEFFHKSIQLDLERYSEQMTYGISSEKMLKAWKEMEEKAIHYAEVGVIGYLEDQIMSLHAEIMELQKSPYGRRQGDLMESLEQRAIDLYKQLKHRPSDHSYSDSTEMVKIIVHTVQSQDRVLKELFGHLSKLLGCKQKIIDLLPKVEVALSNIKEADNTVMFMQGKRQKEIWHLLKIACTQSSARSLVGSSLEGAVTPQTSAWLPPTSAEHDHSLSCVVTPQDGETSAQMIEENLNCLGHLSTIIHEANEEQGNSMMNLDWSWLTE
T1 sequence (Q9Y6K9 whole entry partner): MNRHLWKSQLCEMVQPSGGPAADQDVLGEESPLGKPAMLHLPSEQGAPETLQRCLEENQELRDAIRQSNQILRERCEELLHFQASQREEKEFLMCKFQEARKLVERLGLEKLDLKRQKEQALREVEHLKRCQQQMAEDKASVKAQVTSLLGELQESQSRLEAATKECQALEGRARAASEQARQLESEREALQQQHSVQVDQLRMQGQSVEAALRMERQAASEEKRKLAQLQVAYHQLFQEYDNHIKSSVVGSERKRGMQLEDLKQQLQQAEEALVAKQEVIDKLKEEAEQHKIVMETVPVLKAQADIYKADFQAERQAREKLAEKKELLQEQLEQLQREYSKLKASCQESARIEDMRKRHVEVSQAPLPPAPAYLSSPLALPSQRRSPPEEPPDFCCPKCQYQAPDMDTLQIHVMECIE

Regarding `NC(=O)[C@H](CCc1ccccc1)NC(=O)c1ccc2[nH]c(-c3ccncc3)cc2c1` [Example 2], in series [1], the concentration for half-maximal inhibition (IC50) – broadly, the concentration at which inhibition is half-maximal – was determined as 610 nM. Also, the inhibition (commonly the percentage by which the read-out fell short of the control) at 100 µM in series [2] is 24%; in series [4], 35%. Moreover, the PKC % inhibition in series [3] is on record as 15%.

In series [1], `Cc1c(-c2ccncc2)[nH]c2ccc(C(=O)N[C@@H](CCn3cccc3)C(N)=O)cc12` [Example 7, N-(1-Carbamoyl-3-pyrrol-1-ylpropyl)-3-methyl-2-pyridin-4-yl-1H-indole-5-carboxamide] showed an IC50 of 3000 nM. Further, the inhibition at 100 µM in series [4] stood at 18%.

`O=C(N[C@@H](CSc1ccccc1)C(=O)O)c1ccc2[nH]c(-c3ccncc3)cc2c1` [Example 4]: in series [1], it took 500 nM to reach half-maximal inhibition (IC50). For the same compound, the inhibition at 100 µM in series [2] amounted to 42%; in series [4] it was 47%. For the same compound, the PKC % inhibition in series [3] is recorded as 33%.

Regarding `NC(=O)[C@H](CCc1ccccc1)NC(=O)c1ccc2[nH]c(-c3ccccc3)c(-c3ccccc3)c2c1` [Example 1, N-(1-Carbamoyl-3-phenylpropyl)-2,3-diphenyl-1H-indole-5-carboxamide], the melting point (usually the temperature, or range, at which the solid turns liquid) was in the range of 120 to 125 °C. In addition, in series [1], the IC50 was determined as 32000 nM.

`NC(=O)[C@H](CSc1ccccc1)NC(=O)c1ccc2[nH]c(-c3ccncc3)cc2c1` (stereo in doubt) [Example 3, N-(1-carbamoyl-2-phenylsulfanylethyl)-2-pyridin-4-yl-1H-indole-5-carboxamide] displayed an IC50 in series [1] of 550 nM. The inhibition at 100 µM in series [2] was 35%; in series [4], 37%. Besides, the PKC % inhibition in series [3] was found to be 39%.

Turning to `Cc1c(-c2ccncc2)[nH]c2ccc(C(=O)N[C@@H](CSc3ccccc3)C(N)=O)cc12` [Example 6], in series [1], half-maximal inhibition (IC50) required 4900 nM. Moreover, the inhibition at 100 µM in series [2] was 60%; in series [4] it was 39%. The PKC % inhibition in series [3] was 58%.

In turn, `Cc1c(-c2ccncc2)[nH]c2ccc(C(=O)N[C@@H](CSc3ccccc3)C(=O)O)cc12` [Example 5] displayed an IC50 in series [1] of 1800 nM. Besides, the values for the inhibition at 100 µM in series [2] and in series [4] were 55% and 27%, respectively. Also, the PKC % inhibition in series [3] is 8%.

With `CCN(C[C@H](NC(=O)c1ccc2[nH]c(-c3ccncc3)cc2c1)C(N)=O)c1ccccc1` [Example 9], the IC50 in series [1] stood at 1000 nM. The inhibition at 100 µM in series [2] and in series [4] was 0% each time. The same compound displayed a PKC % inhibition in series [3] of 23%.
